Results: patent EP2308847B1, “Substituted pyridines as inhibitors of dipeptidyl peptidase IV and their application for the treatment of diabetes and related diseases” (EMC microcollections GmbH, priority 2009, dated 2011)

Target: T1, human recombinant DPP-IV (Homo sapiens, UniProt P27487)
T1 construct: purchased Enzo Life Sciences AK499-0001
Experiment: biochemical
Method: The potency of the tested compounds is described upon the degree in inhibition of DPP-IV cleavage of the chromogenic substrate Gly-Pro-pNA (pNA is p-nitroaniline), expressed as IC50 values.
The assay was performed in 96-well plates at 37°C. First the enzyme was preincubated with the test compounds for 10 min. Therefore each well was filled with 0.18 mU of enzyme and variable concentrations of the inhibitor. Each well was filled up with Tris buffer (50 mM, pH 7.5) to a final volume of 200 µL. For dilutions of all test compounds DMSO was used.
The assay was repeated 3 times for each test compound. IC50 values were calculated after plotting the data for up to eight inhibitor concentrations by mean.
By measuring the rate of hydrolysis of Gly-Pro-pNA at four different concentrations of substrate and inhibitor the type of inhibition was determined. […] For each concentration of inhibitor the initial rates were used for Lineweaver-Burk plot.

T1 sequence (P27487 whole entry): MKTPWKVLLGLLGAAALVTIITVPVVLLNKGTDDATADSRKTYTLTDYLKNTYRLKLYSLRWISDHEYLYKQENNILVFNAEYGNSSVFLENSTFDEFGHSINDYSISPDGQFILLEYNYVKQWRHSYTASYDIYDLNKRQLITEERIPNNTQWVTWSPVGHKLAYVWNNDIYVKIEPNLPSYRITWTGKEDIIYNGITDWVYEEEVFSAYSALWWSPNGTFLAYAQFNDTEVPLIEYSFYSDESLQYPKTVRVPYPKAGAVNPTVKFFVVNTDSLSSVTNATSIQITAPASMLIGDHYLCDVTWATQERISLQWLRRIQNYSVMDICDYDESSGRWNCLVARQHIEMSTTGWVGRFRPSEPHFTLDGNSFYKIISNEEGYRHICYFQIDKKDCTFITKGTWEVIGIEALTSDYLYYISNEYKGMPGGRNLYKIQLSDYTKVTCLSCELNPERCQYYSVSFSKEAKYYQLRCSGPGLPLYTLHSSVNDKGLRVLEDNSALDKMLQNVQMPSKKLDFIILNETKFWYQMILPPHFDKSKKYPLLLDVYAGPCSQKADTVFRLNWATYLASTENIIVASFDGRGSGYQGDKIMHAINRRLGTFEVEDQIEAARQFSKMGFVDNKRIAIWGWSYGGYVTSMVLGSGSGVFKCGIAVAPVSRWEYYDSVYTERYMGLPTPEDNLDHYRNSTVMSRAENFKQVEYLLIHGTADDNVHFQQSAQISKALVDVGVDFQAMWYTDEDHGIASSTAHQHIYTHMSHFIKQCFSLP

Row | SMILES | IC50 [µM]
1 | Cc1nc(C(=O)O)cc(-c2ccc(F)cc2)c1CN [(XIII)] | < 10
2 | Cc1nc(C(=O)O)cc(-c2ccccc2F)c1CN [(XIV)] | < 10
3 | Cc1nc(-c2ccc(Cl)cc2Cl)cc(C(=O)O)c1CN [regioisomer (XV), reference compound] | < 10
